Reference: US11512053B2, “Arginine methyltransferase inhibitors and uses thereof” (priority 2013, dated 2022)
Where two headings read alike, the source gives them in different places.

Columns and labels:
[1] = biological target: full-length human PRMT1 isoform 1 (GST-tagged) (Homo sapiens, UniProt Q99873); assay: PRMT1 Biochemical Assay (3H-SAM Flashplate, peptide substrate)
Excerpt: General Materials. S-adenosylmethionine (SAM), S-adenosylhomocysteine (SAH), bicine, Tween20, dimethylsulfoxide (DMSO), bovine skin gelatin (BSG), and Tris(2-carboxyethyl)phosphine hydrochloride solution (TCEP) were purchased from Sigma-Aldrich at the highest level of purity possible. ^3H-SAM was purchase from American Radiolabeled Chemicals with a specific activity of 80 Ci/mmol. 384-well streptavidin Flashplates were purchased from PerkinElmer.
Protein Expression. Recombinant baculovirus were generated according to Bac-to-Bac kit instructions (Life Technologies). […] Infections were carried out at 27° C. for 48 hours, harvested by centrifugation, and stored at −80° C. for purification.
Protein Purification. […] GST-tagged PRMT1 was eluted with 50 mM Tris, 2 mM glutathione, pH 7.8, dialysed in buffer A and concentrated to 1 mg/mL.
General Procedure for PRMT1 Enzyme Assays on Peptide Substrates. The assays were all performed in a buffer consisting of 20 mM Bicine (pH=7.6), 1 mM TCEP, 0.005% BSG, and 0.002% Tween 20, prepared on the day of use. […] DMSO (1 ul) was added to Columns 11, 12, 23, 24, rows A-H for the maximum signal control and 1 ul of SAH, a known product and inhibitor of PRMT1, was added to columns 11, 12, 23, 24, rows I-P for the minimum signal control. A cocktail (40 ul) containing the PRMT1 enzyme was added by Multidrop Combi (Thermo-Fisher). The compounds were allowed to incubate with PRMT1 for 30 min at room temperature, then a cocktail (10 ul) containing SAM and peptide was added to initiate the reaction (final volume=51 ul). […] The assays were stopped by the addition of non-radiolabeled SAM (10 ul) to a final concentration of 300 uM, which dilutes the ^3H-SAM to a level where its incorporation into the peptide substrate is no longer detectable. 50 ul of the reaction in the 384-well polypropylene plate was then transferred to a 384-well Flashplate and the biotinylated peptides were allowed to bind to the streptavidin surface for at least 1 hour before being washed once with 0.1% Tween20 in a Biotek ELx405 plate washer. The plates were then read in a PerkinElmer TopCount plate reader to measure the quantity of ^3H-labeled peptide bound to the Flashplate surface, measured as disintegrations per minute (dpm) or alternatively, referred to as counts per minute (cpm).
Where dpm=disintegrations per minute, cmpd=signal in assay well, and min and max are the respective minimum and maximum signal controls.
Where top and bottom are the normally allowed to float, but may be fixed at 100 or 0 respectively in a 3-parameter fit. The Hill Coefficient normally allowed to float but may also be fixed at 1 in a 3-parameter fit. Y is the % inhibition and X is the compound concentration.

[2] = test system: mono-methyl arginine in RKO cells; assay: RKO Methylation Assay, In Cell Western (ICW) for detection of mono-methyl arginine and DNA content; type: cell-based; conditions: Homo sapiens, RKO, 72 h, RKO cells, read-out: In Cell Western EC30
Excerpt: RKO adherent cells were purchased from ATCC (American Type Culture Collection), Manassas, Va., USA. DMEM/Glutamax medium, penicillin-streptomycin, heat inactivated fetal bovine serum, 0.05% trypsin and D-PBS were purchased from Life Technologies, Grand Island, N.Y., USA. Odyssey blocking buffer, 800 CW goat anti-rabbit IgG (H+L) antibody, and Licor Odyssey infrared scanner were purchased from Licor Biosciences, Lincoln, Nebr., USA. Mono-methyl arginine antibody was purchased from Cell Signaling Technology, Danvers, Mass., USA. Methanol was purchased from VWR, Franklin, Mass., USA. 10% Tween 20 was purchased from KPL, Inc., Gaithersburg, Md., USA. DRAQ5 was purchased from Biostatus Limited, Leicestershire, UK.
RKO adherent cells were maintained in growth medium (DMEM/Glutamax medium supplemented with 10% v/v heat inactivated fetal bovine serum and 100 units/mL penicillin-streptomycin) and cultured at 37° C. under 5% CO2.
Cell treatment, In Cell Western (ICW) for detection of mono-methyl arginine and DNA content. […] Compound (100 nL) from a 96-well source plate was added directly to 384 well cell plate. Plates were incubated at 37° C., 5% CO2 for 72 hours. After three days of incubation, plates were brought to room temperature outside of the incubator for ten minutes and blotted on paper towels to remove cell media. 50 μL of ice cold 100% methanol was added directly to each well and incubated for 30 min at room temperature. After 30 min, plates were transferred to a Biotek EL406 plate washer and washed 2 times with 100 μL per well of wash buffer (1×PBS). Next 60 μL per well of Odyssey blocking buffer (Odyssey Buffer with 0.1% Tween 20 (v/v)) were added to each plate and incubated 1 hour at room temperature. Blocking buffer was removed and 20 μL per well of primary antibody was added (mono-methyl arginine diluted 1:200 in Odyssey buffer with 0.1% Tween 20 (v/v)) and plates were incubated overnight (16 hours) at 4° C. Plates were washed 5 times with 100 μL per well of wash buffer. […] The plates were washed 5 times with 100 μL per well wash buffer then 2 times with 100 μL per well of water. Plates were allowed to dry at room temperature then imaged on the Licor Odyssey machine which measures integrated intensity at 700 nm and 800 nm wavelengths. Both 700 and 800 channels were scanned.
Calculations: First, the ratio for each well was determined by:
Each plate included fourteen control wells of DMSO only treatment (minimum activation) as well as fourteen control wells for maximum activation treated with 20 μM of a reference compound. The average of the ratio values for each control type was calculated and used to determine the percent activation for each test well in the plate. Reference compound was serially diluted three-fold in DMSO for a total of nine test concentrations, beginning at 20 μM. Percent activation was determined and EC30 curves were generated using triplicate wells per concentration of compound.

[3] = single experiment or average of multiple experiments
[4] = 72 hours compound incubation, mono-methyl arginine signal normalised to DNA content (DRAQ5), percent activation vs 20 μM reference compound
[5] = 72 hours incubation, mono-methyl arginine signal normalised to DNA content, single experiment or average of multiple experiments

Chain of full-length human PRMT1 isoform 1 (GST-tagged) (Q99873 with tags, fused parts or gaps): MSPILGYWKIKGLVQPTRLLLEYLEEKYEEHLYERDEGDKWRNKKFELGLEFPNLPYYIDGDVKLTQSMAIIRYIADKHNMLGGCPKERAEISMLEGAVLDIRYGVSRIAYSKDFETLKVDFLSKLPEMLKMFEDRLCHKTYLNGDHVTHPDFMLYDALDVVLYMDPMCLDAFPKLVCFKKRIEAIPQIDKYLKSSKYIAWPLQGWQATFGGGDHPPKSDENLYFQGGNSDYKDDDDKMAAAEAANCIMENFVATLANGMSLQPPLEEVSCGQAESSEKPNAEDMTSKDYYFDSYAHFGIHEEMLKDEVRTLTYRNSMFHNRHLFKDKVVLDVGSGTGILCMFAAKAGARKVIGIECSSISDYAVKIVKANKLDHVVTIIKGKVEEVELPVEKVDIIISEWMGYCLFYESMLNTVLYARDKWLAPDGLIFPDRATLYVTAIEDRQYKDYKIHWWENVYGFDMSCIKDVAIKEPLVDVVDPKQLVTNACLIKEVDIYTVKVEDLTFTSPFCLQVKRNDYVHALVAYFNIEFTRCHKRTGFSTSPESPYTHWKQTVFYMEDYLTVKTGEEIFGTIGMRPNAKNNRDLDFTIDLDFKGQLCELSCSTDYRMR

## CNCCN(C)Cc1c[nH]nc1C1CCC(=O)N(Cc2ccccc2)C1 (centres unmarked) [Compound 115]
[1]
  IC50: < 0.1 µM
[1]; [3]
  IC50: 0.0887 µM
[2]; [4]
  EC30: < 3 µM
[2]; [5]
  EC30: 0.0189 µM

## CNCCN(C)Cc1c[nH]nc1C1CCC2(CC1)OCCO2 [Compound 177]
[1]
  IC50: < 0.1 µM
[1]; [3]
  IC50: 0.0276 µM
[2]; [4]
  EC30: < 3 µM
[2]; [5]
  EC30: 0.571 µM

## CNCCN(C)Cc1c[nH]nc1C1CCC2(CC1)CC2 [Compound 144]
[1]
  IC50: < 0.1 µM
[1]; [3]
  IC50: 0.0216 µM
[2]; [4]
  EC30: < 3 µM
[2]; [5]
  EC30: 0.063 µM

## CNCCN(C)Cc1c[nH]nc1[C@H]1CC[C@@]2(CCN(Cc3ccccc3)C2=O)CC1 [Compound 127]
[1]
  IC50: < 0.1 µM
[1]; [3]
  IC50: 0.0165 µM
[2]; [4]
  EC30: < 3 µM
[2]; [5]
  EC30: 0.0292 µM

## CNCCN(C)Cc1c[nH]nc1[C@H]1CC[C@H](C(C)C)CC1 [Compound 180]
[1]
  IC50: < 0.1 µM
[1]; [3]
  IC50: 0.0049 µM
[2]; [4]
  EC30: < 3 µM
[2]; [5]
  EC30: 0.019 µM

## CNCCN(C)Cc1c[nH]nc1[C@H]1CC[C@@]2(CCN(Cc3ccc(F)cc3)C2=O)CC1 [Compound 125]
[1]
  IC50: < 0.1 µM
[1]; [3]
  IC50: 0.0053 µM
[2]; [4]
  EC30: < 3 µM
[2]; [5]
  EC30: 0.0876 µM

## CCN1CC2(CCC(c3n[nH]cc3CN(C)CCNC)CC2)N(C)C1=O (centres unmarked) [Compound 154]
[1]
  IC50: < 0.1 µM
[1]; [3]
  IC50: 0.0177 µM
[2]; [4]
  EC30: < 3 µM
[2]; [5]
  EC30: 1.79 µM

## CNCCN(C)Cc1c[nH]nc1C1CCC(=O)N(CCc2ccccc2)C1 (centres unmarked) [Compound 110]
[1]
  IC50: < 0.1 µM
[1]; [3]
  IC50: 0.0131 µM
[2]; [4]
  EC30: < 3 µM
[2]; [5]
  EC30: 2.55 µM

## CNCCN(C)Cc1c[nH]nc1[C@H]1CC[C@]2(CCOC2)CC1 [Compound 142]
[1]
  IC50: < 0.1 µM
[1]; [3]
  IC50: 0.0072 µM
[2]; [4]
  EC30: < 3 µM
[2]; [5]
  EC30: 0.052 µM

## CNCCN(C)Cc1c[nH]nc1C1CCC2(CCCCO2)CC1 (centres unmarked) [Compound 137]
[1]
  IC50: < 0.1 µM
[1]; [3]
  IC50: 0.0073 µM
[2]; [4]
  EC30: < 3 µM
[2]; [5]
  EC30: 0.015 µM

## CNCCN(C)Cc1c[nH]nc1C1CCC(OCC(C)C)CC1 (centres unmarked) [Compound 153]
[1]
  IC50: < 0.1 µM
[1]; [3]
  IC50: 0.0232 µM
[2]; [4]
  EC30: < 3 µM
[2]; [5]
  EC30: 0.129 µM

## CNCCN(C)Cc1c[nH]nc1C1CCC2(CC1)CNC(=O)C2 (centres unmarked) [Compound 147]
[1]
  IC50: < 0.1 µM
[1]; [3]
  IC50: 0.0183 µM
[2]; [4]
  EC30: 3.01 to 12 µM
[2]; [5]
  EC30: 8.6 µM

## CNCCN(C)Cc1c[nH]nc1[C@H]1CC[C@H](OC2CCCCC2)CC1 [Compound 139]
[1]
  IC50: < 0.1 µM
[1]; [3]
  IC50: 0.0305 µM
[2]; [4]
  EC30: < 3 µM
[2]; [5]
  EC30: 0.627 µM

## CCOC1CC2(CCC(c3n[nH]cc3CN(C)CCNC)CC2)CC1OCC (centres unmarked) [Compound 168]
[1]
  IC50: < 0.1 µM
[1]; [3]
  IC50: 0.0198 µM
[2]; [4]
  EC30: < 3 µM
[2]; [5]
  EC30: 0.085 µM

## CNCCN(C)Cc1c[nH]nc1C1CCC2(CC1)CCN(C)C2=O (centres unmarked) [Compound 152]
[1]
  IC50: < 0.1 µM
[1]; [3]
  IC50: 0.0142 µM
[2]; [4]
  EC30: < 3 µM
[2]; [5]
  EC30: 0.119 µM

## CCOCC1CC(COCC)CC(c2n[nH]cc2CN(C)CCNC)C1 (centres unmarked) [Compound 119]
[1]
  IC50: 0.101 to 1 µM
[1]; [3]
  IC50: 0.124 µM
[2]; [4]
  EC30: < 3 µM
[2]; [5]
  EC30: 0.0773 µM

## CNCCN(C)Cc1c[nH]nc1[C@H]1CC[C@H](OCCOc2ccc(OCCOC)cc2)CC1 [Compound 116]
[1]
  IC50: < 0.1 µM
[1]; [3]
  IC50: 0.0098 µM
[2]; [4]
  EC30: 3.01 to 12 µM
[2]; [5]
  EC30: 8.9 µM

## CNCCN(C)Cc1c[nH]nc1C1CCC(N(CC(C)C)C(=O)CC2CCOCC2)CC1 (centres unmarked) [Compound 114]
[1]
  IC50: 0.101 to 1 µM
[1]; [3]
  IC50: 0.101 µM

## CNCCN(C)Cc1c[nH]nc1C1CCC(O)C2(CCCC2)C1 (centres unmarked) [Compound 182, 9-[4-({methyl[2-(methylamino)ethyl]amino}methyl)-1H-pyrazol-3-yl]spiro[4.5]decan-6-ol]
[1]
  IC50: < 0.1 µM
[1]; [3]
  IC50: 0.0116 µM
[2]; [4]
  EC30: < 3 µM
[2]; [5]
  EC30: 0.411 µM

## CNCCN(C)Cc1c[nH]nc1C1CCC(=O)N(CCC(C)C)C1 (centres unmarked) [Compound 117]
[1]
  IC50: < 0.1 µM
[1]; [3]
  IC50: 0.0386 µM

## CNCCN(C)Cc1c[nH]nc1C1CCCC(COCCOC)C1 (centres unmarked) [Compound 112]
[1]
  IC50: < 0.1 µM
[1]; [3]
  IC50: 0.0189 µM

## CCCOC1CC(OCCC)CC(c2n[nH]cc2CN(C)CCNC)C1 (centres unmarked) [Compound 131]
[1]
  IC50: 0.101 to 1 µM
[1]; [3]
  IC50: 0.27 µM

## CNCCN(C)Cc1c[nH]nc1C1CCC2(CC1)OC(C)CC(C)O2 (centres unmarked) [Compound 121]
[1]
  IC50: < 0.1 µM
[1]; [3]
  IC50: 0.0152 µM

## CNCCN(C)Cc1c[nH]nc1C1CCC2(CC1)NC(=O)N(C)C2=O (centres unmarked) [Compound 170]
[1]
  IC50: < 0.1 µM
[1]; [3]
  IC50: 0.021 µM

## CNCCN(C)Cc1c[nH]nc1C1CCC2(CC1)CCC(F)(F)CC2 [Compound 130]
[1]
  IC50: < 0.1 µM
[1]; [3]
  IC50: 0.0034 µM

## CNCCN(C)Cc1c[nH]nc1[C@H]1CC[C@@H](N(CC2CCOCC2)C(=O)CC(C)C)CC1 [Compound 107]
[1]
  IC50: < 0.1 µM
[1]; [3]
  IC50: 0.0212 µM

## CNCCN(C)Cc1c[nH]nc1[C@H]1CC[C@H](OCCOc2ccc(OC)cc2)CC1 [Compound 186]
[1]
  IC50: 0.101 to 1 µM
[1]; [3]
  IC50: 0.11 µM

## CNCCN(C)Cc1c[nH]nc1C1CC(COC)CC(COC)C1 (centres unmarked) [Compound 138]
[1]
  IC50: 0.101 to 1 µM
[1]; [3]
  IC50: 0.349 µM
